Target: aryl hydrocarbon receptor (AhR) (Homo sapiens, UniProt P35869)
Assay: EROD induction in Caco-2 cells (endogenous AhR), abolished by AhR antagonist
Format: cell-based

Clc1cc2c(cc1Cl)Oc1cc(Cl)c(Cl)cc1O2 [2,3,7,8-TCDD, 2,3,7,8-tetrachlorodibenzo-p-dioxin]
EC50: 0.102 nM
